According to ChEMBL document CHEMBL5729152, “Lysyl oxidase-like 2 inhibitors and uses thereof” (2022):

Molecular target: T1, Lysyl oxidase homolog 2 (Homo sapiens, UniProt Q9Y4K0)
T1 sequence (Q9Y4K0 whole entry): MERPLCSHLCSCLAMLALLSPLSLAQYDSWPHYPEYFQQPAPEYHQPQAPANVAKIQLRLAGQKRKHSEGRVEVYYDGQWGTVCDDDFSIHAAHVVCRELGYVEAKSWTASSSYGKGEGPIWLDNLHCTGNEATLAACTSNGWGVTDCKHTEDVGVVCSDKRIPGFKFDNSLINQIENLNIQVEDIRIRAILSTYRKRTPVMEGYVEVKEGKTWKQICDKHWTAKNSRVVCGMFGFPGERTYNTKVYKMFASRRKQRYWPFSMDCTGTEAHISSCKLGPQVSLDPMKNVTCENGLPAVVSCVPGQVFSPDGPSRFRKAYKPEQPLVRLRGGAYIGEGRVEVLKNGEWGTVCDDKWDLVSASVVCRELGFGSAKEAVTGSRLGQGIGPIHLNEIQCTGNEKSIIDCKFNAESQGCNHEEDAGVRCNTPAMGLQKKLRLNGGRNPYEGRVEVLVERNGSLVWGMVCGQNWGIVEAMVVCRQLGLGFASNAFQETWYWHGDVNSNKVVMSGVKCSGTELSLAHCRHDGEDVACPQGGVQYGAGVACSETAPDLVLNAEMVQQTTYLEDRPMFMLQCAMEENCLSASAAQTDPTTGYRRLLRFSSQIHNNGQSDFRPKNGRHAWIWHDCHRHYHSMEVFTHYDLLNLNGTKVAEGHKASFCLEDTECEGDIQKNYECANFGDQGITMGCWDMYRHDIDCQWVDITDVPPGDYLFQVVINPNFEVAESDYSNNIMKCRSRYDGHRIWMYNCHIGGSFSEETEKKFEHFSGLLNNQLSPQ
Experiment: Human LOXL2 Amine Oxidase Activity Assay: LOXL2 amine oxidase activity is evaluated by measuring Amplex Red fluorescence using 10-20× concentrated conditioned media from CHO cells stably expressing human LOXL2. To assay for amine oxidase activity, 10 μL of the concentrated conditioned media is incubated with 2 μL of test compound in DMSO and 73 μL Assay Buffer (50 mM Borate Buffer, pH8) for 2 h at 37° C. After the 2 h incubation, 5 μl of 10 mM 1,5-Diaminopentane (DAP) diluted in Assay Buffer and 10 μl of Amplex Red Mix (8.5 μl Assay Buffer+0.5 μl of 10 mM Amplex Red+1 μl of 500 U/ml Horseradish Peroxidase) are added and the plate mixed and immediately placed on the FlexStaion for fluorescence measurements. Fluorescence is read in kinetic mode every 2 min for 1 hour at excitation=544 and emission=590. The amine oxidase activity is calculated from the slope of the linear portion of the curve

Row | IC50 [nM] | SMILES
1 | < 300 | CCN1CCN(Cc2ccc(CNC(=O)c3cccc(Oc4cc(CN)ccn4)c3)cc2)CC1
2 | < 300 | NCc1ccnc(C(=O)NCc2ccccc2)c1
